Data taken from patent US9526721B2, “Tetrahydroprotoberbine compounds and uses thereof in the treatment of neurological, psychiatric and neurodegenerative diseases” (priority 2012, dated 2016).
Where two headings read alike, the source gives them in different places. Marks after values point to notes of the source that are not given here.

Legend:
D2L [1] = biological target: T1, D2L (Homo sapiens, UniProt P14416); assay: Receptor binding, dopamine D2L; details: present data; comparison ligand 0.16 nM Spiperone; read-out: D2L (Ki)
T1 construct: host or cells: CHO cells
Experimental: (§1) All receptors tested were heterologously expressed CHO cells and IC50 values were determined by a non-linear, least squares regression analysis using MathIQ (ID Business Solution Ltd, UK). Ki was calculated using the equation of Cheng and Prusoff (1973, Biochem. Pharmacol 22:23099-3108) derived from the observed IC50 of the tested compound, the concentration of radioligand employed in the assay, and the historical values for the Kd of the ligand (obtained experimentally at MDS Pharma Services).
as §1, with “receptors” for “receptors tested”, “UK). K1” for “UK). Ki”, “calculated (Y.” for “calculated using the equation of”, “Cheng &” for “Cheng and”, “Prusoff 1973)” for “Prusoff (1973, Biochem. Pharmacol 22:23099-3108) derived”

D1/D2 [2] = assay: D1/D2 affinity ratio; assay type: binding; details: present data
Experimental: as §1, with “receptors” for “receptors tested”, “UK). K1” for “UK). Ki”, “calculated (Y.” for “calculated using the equation of”, “Cheng &” for “Cheng and”, “Prusoff 1973)” for “Prusoff (1973, Biochem. Pharmacol 22:23099-3108) derived”

Catalepsy (bar test) = assay type: in vivo, rat; details: rat, in vivo; present data; SC, 45 min time point
Experimental: (§2) Testing occurred in a plexiglas box (28 cm×45 cm×20 cm) containing a horizontal steel bar located 8 cm above floor level. […] After injection animals were returned to the test box and catalepsy testing occurred at 1, 15, 30, and 45 minutes after injection. Testing at each time point lasted 2 min after the forepaws of each rat was placed on the bar. Behavior was recorded with a video camera (Cohu, Poway, Calif.) and scored off-line. The cumulative time spent immobilized with both forelimbs on the horizontal bar was scored for each 2 min test epoch. Videos selected at random were scored independently by a second observer and a high inter-rater reliability was observed (R^2=0.93, F=393.4, p<0.05).
(§3) Catalepsy testing was conducted as described in Example 12.

rats [3] = assay: Catalepsy (bar test); assay type: in vivo, rat
Experimental: as §2, §3

rats [4] = assay: Latent inhibition; assay type: in vivo, rat
Experimental: Sensitization: Animals were removed from the colony and taken to a holding room where they received either IP d-AMPH or saline every Monday, Wednesday, and Friday. Doses started at 1 mg/kg and increased 1 mg/kg each week over 5 weeks to 5 mg/kg. 25 days after the induction phase, behavioral sensitization was assessed over 3 days in locomotor chambers (plexiglass box, 40 cm×40 cm×40 cm) where speed and distance traveled were recorded using Noldus Ethovision XT (Noldus, Leesburg, Va.). The first day consisted of a 2 hr acclimation session, and prior to counter balanced injections of either 0.5 mg/kg d-AMPH or saline on days 2 and 3 animals were acclimated for 1 hr. Experiments were run in two separate cohorts of 30 animals to minimize the time between testing sensitization and LI.
Latent Inhibition: LI tests were performed in rats treated with 1.0 mg/kg acute d-AMPH, sensitized rats, and drug-naive rats. LI testing began 5 days post-challenge of the escalating dose regime. Animals in both conditions (chronic saline or sensitized) were randomly assigned to either non-pre-exposed (NPE) or pre-exposed (PE) groups. Testing took place over 3 consecutive days. […] Animals in the PE group received 50 presentations of the CS (10 sec duration) per day at a variable interval for the first two days. Animals in the NPE group were placed in the chamber for an equal time as the PE animals. Conditioning (COND) consisted of 100 CS-US pairings. Latency to cross into the other compartment and the number of total beam breaks were recorded. Drug-naïve animals receiving acute 1.0 mg/kg AMPH were injected IP 45 min before the COND trial.
The effects of the two individual enantiomers of govadine on latent inhibition (LI) were also tested as described in Example 12.

D1 [5] = biological target: T2, D1 (Homo sapiens, UniProt P21728); assay: Receptor binding, dopamine D1; parameters: host or cells: CHO cells; details: present data; comparison ligand 0.14 nM SCH-23390; read-out: D1 (Ki)
Experimental: as §1
as §1, with “receptors” for “receptors tested”, “UK). K1” for “UK). Ki”, “calculated (Y.” for “calculated using the equation of”, “Cheng &” for “Cheng and”, “Prusoff 1973)” for “Prusoff (1973, Biochem. Pharmacol 22:23099-3108) derived”

rats [6] = assay: Amphetamine-induced locomotion (AIL); details: Rattus norvegicus, ip, 1 h, read-out: AIL (ED50)
Experimental: Animals were habituated to the locomotor arena for 1 hr on 4 consecutive days prior to testing. Locomotor activity was assessed on day 1 of habituation and treatment groups were assigned in a counter balanced fashion depending on locomotor activity on this day.
After d-AMPH/SAL injection, distance travelled was assessed for 1 hr. Distance travelled was recorded with Noldus Ethovision XT (Noldus, Leesburg, Va.) and analyzed off-line.
Amphetamine induced locomotion (AIL): Animals were habituated to locomotor arenas for 1 hr on 4 consecutive days prior to testing. Locomotor activity was assessed on day 1 of habituation and treatment groups were assigned in a counter-balanced manner determined by distance traveled on day 1. […] Distance traveled was recorded with Noldus Ethovision XT (Noldus, Leesburg, Va.) and analyzed off-line.

rats [7] = assay: Conditioned avoidance responding (CAR)
Experimental: Conditioned avoidance responding (CAR) was performed in a two-way avoidance procedure with drug naive rats in four shuttle boxes (Med Associates, Vt., USA) each consisting of two compartments separated by an open door. Each compartment contained a wall-mounted speaker, house light and 5 photocells to detect the location of the animal. All experimental protocols and data acquisition were controlled by custom programs written in MED-PC.
Before training, each animal received two acclimation sessions lasting 30 min with only the house light illuminated. […] Pairings of the conditioned stimulus (CS) (white noise, ˜60 dB) and the unconditioned stimulus (US) (footshock, 0.75 mA) were presented at random intervals with a mean of 60 sec. The CS was presented for 10 sec. During this time, if the animal moved to the opposite side of the box, the white noise was silenced, no foot shock delivered, and an avoidance response was scored. Upon termination of the 10 sec tone, if the animal had not moved to the opposite side of the box, a foot-shock was administered for 2 sec. […] Failure to avoid or escape constituted a response failure and was scored accordingly. After reaching a criterion of 90% avoidances for a block of 20 trials, usually achieved with ˜100 CS-US pairings, each animal advanced to the drug-testing phase. Animals not meeting the criterion by 120 pairings were excluded from the study.
Pairings were presented just as during training and were scored in the same fashion. The test trial consisted of 100 CS-US pairings.

rats [8] = assay: Microdialysis of prefrontal cortex and nucleus accumbens;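 note: dialysate collected every 10 min from freely moving rats, analysed by HPLC with electrochemical detection, after four stable baseline samples (under 10% variation) preceding drug dosing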
Experimental: Rats received subcutaneous injections of an analgesic (ketoprofen 0.05 mL or buprenorphine, 0.1 mL) and sterile saline (0.9% NaCl, ˜3 mL). Once shaved and cleaned, the heads were secured in the stereotaxic frame in flat skull position for bilateral implantation of stainless steel microdialysis guide cannulae (19 gauge×15 mm) in the nucleus accumbens (NAc) (from bregma +1.7 mm anterior and ±1.1 mm medial; from dura −1.0 mm ventral) or medial prefrontal cortex (mPFC) (+3.0 mm anterior, ±0.6 mm medial; −1.0 mm ventral). […] Rats were allowed to rest with heat support until they regained consciousness, and then given a one-week recovery period.
Microdialysis probes were assembled 1-2 days prior to microdialysis experiments. Probes were concentric in design, constructed from Filtral 12 AN69HF semi-permeable hollow fibres (2 mm length, 340 μm OD×4 mm, 65 kDalton molecular weight cut-off; Hospal, Neurnberg, Germany) and silica inlet-outlet lines (75/150 um ID/OD).
The day prior to microdialysis experiments, probes were connected to an Instech dual-channel liquid swivel (Plymouth Meeting, Pa.) and flushed with artificial cerebrospinal fluid (aCSF). […] Following DA recovery tests, probes were implanted via the guide cannulae (dialysis membrane spanned −4.8 to −6.8 mm ventrally for NAc; −1.6 to −3.6 mm for mPFC). Rats remained in the testing chamber overnight (14-16 hr) with aCSF perfusing continuously through the probes at 1 μL/min In the morning, microdialysis samples were collected at 10 min intervals and assayed for DA, DOPAC, homovanillic acid (HVA) and 5-HIAA content. Once baseline levels were determined to be stable for four consecutive samples (less than 10% fluctuation), the drug treatment phase of each experiment was initiated.
Microdialysis samples were analyzed immediately after collection using high pressure liquid chromatography (HPLC) with electrochemical detection. […] The mobile phase [70 mM sodium acetate buffer, 40 mg/L EDTA and 50 mg/L of sodium dodecyl sulfate (adjustable), pH 4.0, 10% methanol] flowed through the system at 0.17 mL/min EZChrome Elite software (Scientific Software, Pleasanton, Calif.) was used to acquire and analyze chromatographic data.
After the experiments, rats were deeply anesthetized, brains were removed and stored in 20% w/v sucrose and 4% v/v paraformaldehyde. Brains were sliced into 50 um coronal sections, stained with cresyl violet and examined for probe placement.
Microdialysis probes (2 mm active membrane) were implanted in the NAc and mPFC ˜16 hrs prior to start of the experiment and continuously perfused aCSF.

rats [9] = assay: Temporal order recognition (radial arm maze); details: 1.0 mg/kg govadine isomers, 5.0 mg/kg clozapine
Experimental: The task exploits a rat's natural preference for novel locations. Each animal received 3 separate trials where access to two arms of an eight arm radial arm maze was granted. During the first trial, two arms were selected at random for exploration, and animals were allowed to explore these arms for 2 min After this time, they were taken off the maze and returned to their home cage. 1 hour later they were placed back on the maze and two new arms were randomly selected for 2 min of exploration.
Time spent in each arm (recent and old) was recorded as well as total distance traveled and the total number of arm entries in Noldus EthoVision 3.1 (Leesburg, Va.).

D2L [10] = biological target: T1, D2L; details: Xu, S. X. et al., 1989; comparison ligand 0.16 nM Spiperone; cited from earlier work
D1/D2 [11] = details: cited from earlier work
rats [12] = details: Natesan et al., 2008; cited from earlier work
rats [13] = details: Natesan et al., 2008; listed as 1-SPD; cited from earlier work
rats [14] = details: Natesan et al., 2008; cited from earlier work; remark: listed apart in the source
D1 [15] = biological target: T2, D1; details: read-out: D1 (Ki); Xu, S. X. et al., 1989; comparison ligand 0.14 nM SCH-23390; cited from earlier work
[16] = microdialysis, nucleus accumbens
[17] = microdialysis, prefrontal cortex

T1 sequence (P14416 whole entry): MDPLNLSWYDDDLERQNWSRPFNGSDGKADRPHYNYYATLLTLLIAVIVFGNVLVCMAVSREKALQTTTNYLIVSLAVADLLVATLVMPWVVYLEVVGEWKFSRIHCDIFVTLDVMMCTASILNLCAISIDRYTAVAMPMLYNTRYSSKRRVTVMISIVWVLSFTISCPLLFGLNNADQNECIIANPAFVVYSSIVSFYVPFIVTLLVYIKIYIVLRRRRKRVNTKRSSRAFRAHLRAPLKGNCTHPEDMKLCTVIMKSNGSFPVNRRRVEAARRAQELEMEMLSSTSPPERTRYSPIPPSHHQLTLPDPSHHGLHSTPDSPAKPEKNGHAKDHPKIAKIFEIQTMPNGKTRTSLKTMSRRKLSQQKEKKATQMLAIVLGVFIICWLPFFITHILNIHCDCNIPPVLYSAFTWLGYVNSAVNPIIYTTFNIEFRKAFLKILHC
T2 sequence (P21728 whole entry): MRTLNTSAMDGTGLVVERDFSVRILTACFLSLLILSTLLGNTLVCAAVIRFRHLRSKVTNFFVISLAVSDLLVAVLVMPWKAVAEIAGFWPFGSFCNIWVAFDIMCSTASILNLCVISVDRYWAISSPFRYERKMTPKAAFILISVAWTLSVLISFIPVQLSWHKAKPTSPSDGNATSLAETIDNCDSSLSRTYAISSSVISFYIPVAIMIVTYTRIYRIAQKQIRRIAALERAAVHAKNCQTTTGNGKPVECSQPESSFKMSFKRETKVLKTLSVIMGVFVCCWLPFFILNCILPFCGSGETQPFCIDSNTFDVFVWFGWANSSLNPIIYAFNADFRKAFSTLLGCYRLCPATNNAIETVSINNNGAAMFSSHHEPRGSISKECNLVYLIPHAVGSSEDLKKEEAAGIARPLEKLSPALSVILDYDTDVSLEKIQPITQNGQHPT

COc1cc2c(cc1O)CN1CCc3cc(OC)c(O)cc3C1C2 (racemic) [dl-govadine]
Ki (D2L [1]): 283 nM | D1/D2 (D1/D2 [2]): 0.023# | ED50 at 45 min (Catalepsy (bar test)): 4.7 mg/kg | catalepsy observed (rats [3]; 1.0 mg/kg SC): mild motor suppression | catalepsy observed (rats [3]; 6.0 mg/kg SC): Strong and extended catalepsy | catalepsy (immobilized contact time) (rats [3]; SC, across doses tested): dose-dependent increase | latent inhibition in non-sensitized animals (rats [4]; 1.0 mg/kg SC before each pre-exposure session): no subsequent effect on LI | latent inhibition in d-AMPH sensitized animals (rats [4]; 1.0 mg/kg SC before each pre-exposure, 5-week escalating d-AMPH): restored LI to levels observed in controls | latent inhibition in acute d-AMPH-treated animals (rats [4]; treatment before each pre-exposure, 1.0 mg/kg d-AMPH before conditioning): restored LI | Ki (D1 [5]): 6.7 nM | ED50 at […] (rats [6]): 1.7 mg/kg | ED50 (rats [7]; Rattus norvegicus, sc, 20 min, read-out: CAR (ED50), present data, SC, 20 min post-injection): 0.723 mg/kg | escapes in CAR (rats [7]; SC, 100 CS-US pairings): increase in escapes | suppression of conditioned avoidance responding (avoidances) (rats [7]; SC, 100 CS-US pairings): dose-dependently suppressed avoidances | CAR (ED50) (rats [7]; present data, SC, 20 min post-injection): 0.720# mg/kg | effect of repeated treatment in CAR (rats [7]; repeated treatment, FIG. 14): Neither of these effects was observed | DA efflux in NAc and mPFC compared to control (rats [8]; 1 mg/kg, Example 15): enhanced DA efflux | 5-HIAA in NAc (rats [8]; [16]): No increase | DOPAC in NAc (rats [8]; [16]): Increases | HVA in NAc (rats [8]; [16]): Increases | dopamine level in NAc (rats [8]; [16]): increased | 5-HIAA in PFC (rats [8]; [17]): No increase | DOPAC in PFC (rats [8]; [17]): Increases | HVA in PFC (rats [8]; [17]): Increases | dopamine level in PFC (rats [8]; [17]): increased

CN1CCN(C2=Nc3cc(Cl)ccc3Nc3ccccc32)CC1 [Clozapine, reference compound]
Arm Entries (rats [9]; 45 min. delay): 7.0 ± 1.9 | Distance Travelled (rats [9]; 45 min. delay): 1286 ± 177 | Arm Entries (rats [9]; 4 hr. delay): 6.0 ± 1.6 | Distance Travelled (rats [9]; 4 hr. delay): 1098 ± 74

COc1cc2c(cc1O)[C@@H]1Cc3ccc(O)c(OC)c3CN1CC2 [l-Stepholidine, l-stepholidine]
Ki (D2L [10]): 85 nM | D1/D2 (D1/D2 [11]; Natesan et al., 2008): 0.850* | D1/D2 (D1/D2 [11]; Xu, S. X. et al., 1989): 0.150** | AIL (ED50) (rats [12]): 2.36* mg/kg | CAR (ED50) (rats [13]): 0.27 mg/kg | Catalepsy (ED50) (rats [14]): 3.6 mg/kg | Ki (D1 [15]): 13 nM
